Entries after “also recorded” stand apart in the source; their conditions may differ.
Experiment: Stereochemical stability of separated isomers on standing in solution
Format: physicochemical
Settings: after separation by chiral HPLC
Experimental: has a chiral centre where indicated. This racemic mixture was separated using chiral preparative HPLC.
This separation was carried out on a Rainin prep machine (200 ml heads) using a Merck 100 mm 20 μm Chiralpak AD column. The Eluent was a mixture of i-hexane, ethanol and methanol (70:15:15), which was flowed at a rate of 190 ml/min. The analaysis was carried out with a wavelength of 215 nm. Complete separation of the two isomers was achieved using a sample concentration of 12.5 mg/ml, an injection volumn of 40 ml and a run time of 3 hours.

CC1C(=O)N(c2cc(Cc3n[nH]c(=O)c4ccccc34)ccc2F)C(=O)N1CCN1CCCC1 (racemic) [Compound 9, 3-(2-fluoro-5-((4-oxo-3,4-dihydrophthalazin-1-yl)methyl)phenyl)-5-methyl-1-(2-(pyrrolidin-1-yl)ethyl)imidazolidine-2,4-dione]
stereochemical stability in solution: epimerise on standing in solution; also recorded: racemises
